For experiment [1], the target named is T1, SMYD3 (Homo sapiens (Human), UniProt Q9H7B4). Kind of experiment: SMYD3 biochemical assay (SPA, 3H-SAM methylation of MEKK2 protein substrate). The following applies: average of n = 1 to n = 50; read-out: SMYD3 Biochem IC50. The procedure, abridged: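 SPA methyltransferase format: tag-cleaved human SMYD3, insect-cell GST-MEKK2 protein substrate, 3H-SAM donor, 30 min RT enzyme–compound preincubation, 100 uM cold SAM quench.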

Experiment [2] addresses T1, SMYD3. Briefly: SMYD3 cell assay (Trimethyl-MEKK2 In-Cell Western in 293T/17 cells). The following applies: average of n = 1 to n = 50; read-out: SMYD3 Cell IC50. The class given is cell-based. The procedure, abridged:
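In-Cell Western readout: methanol-fixed cells stained for trimethyl-MEKK2 and flag tag, ratio per well normalized to DMSO and background controls.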

T1 sequence (Q9H7B4 whole entry): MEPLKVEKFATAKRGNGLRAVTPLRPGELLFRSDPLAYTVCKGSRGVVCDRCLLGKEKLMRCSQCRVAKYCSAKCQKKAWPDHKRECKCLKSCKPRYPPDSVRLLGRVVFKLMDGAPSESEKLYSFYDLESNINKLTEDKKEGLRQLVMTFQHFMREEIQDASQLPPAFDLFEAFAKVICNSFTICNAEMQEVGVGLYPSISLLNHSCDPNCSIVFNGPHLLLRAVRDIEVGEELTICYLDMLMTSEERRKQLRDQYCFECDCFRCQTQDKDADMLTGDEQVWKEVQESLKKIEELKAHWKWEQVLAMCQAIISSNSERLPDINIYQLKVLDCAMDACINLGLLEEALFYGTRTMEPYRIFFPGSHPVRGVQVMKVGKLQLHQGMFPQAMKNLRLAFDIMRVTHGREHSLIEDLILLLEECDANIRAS

For orientation: IC50 means the concentration that inhibits the measured activity by half. Turning to `C[C@@H]1CNCCN1S(=O)(=O)N1CC[C@H](NC(=O)c2cc(C3CC3)on2)C[C@@H]1C` [compound 666, 5-cyclopropyl-N-((2S,4S)-2-methyl-1-(((R)-2-methylpiperazin-1-yl)sulfonyl)piperidin-4-yl)isoxazole-3-carboxamide], the IC50 in experiment [1] was 90.6 nM; in experiment [2], 801 nM.
For the molecule `C[C@H]1CN(S(=O)(=O)NC2CCN(C)CC2)CC[C@H]1NC(=O)c1cc(C2CC2)on1` [compound 667, 5-cyclopropyl-N-((3S,4R)-3-methyl-1-(N-(1-methylpiperidin-4-yl)sulfamoyl)piperidin-4-yl)isoxazole-3-carboxamide], the IC50 amounted to 96.9 nM in experiment [1] and 731 nM in experiment [2].
In the case of `C[C@H]1CN(S(=O)(=O)N(C)C2CCN(C)CC2)CC[C@H]1NC(=O)c1cc(C2CC2)on1` [compound 668, 5-cyclopropyl-N-((3S,4R)-3-methyl-1-(N-methyl-N-(1-methylpiperidin-4-yl)sulfamoyl)piperidin-4-yl)isoxazole-3-carboxamide], the figures for the 50% inhibitory concentration (IC50) in experiment [1] and in experiment [2] were 101 nM and 576 nM, respectively.
The matching figures for `C[C@@H]1CN(S(=O)(=O)N2CC[C@H](NC(=O)c3cc(C4CC4)on3)C[C@@H]2C)CCN1C` [compound 669, 5-cyclopropyl-N-((2S,4S)-1-(((R)-3,4-dimethylpiperazin-1-yl)sulfonyl)-2-methylpiperidin-4-yl)isoxazole-3-carboxamide]: 102 nM and 398 nM.
For `O=C(N[C@H]1C[C@H]2CC[C@@H](C1)N2S(=O)(=O)CCCNCCN1CCOCC1)c1cc(C2CC2)on1` [compound 670, 5-cyclopropyl-N-((1R,3r,5S)-8-((3-((2-morpholinoethyl)amino)propyl)sulfonyl)-8-azabicyclo[3.2.1]octan-3-yl)isoxazole-3-carboxamide], in that order: 103 nM and 886 nM.
Consider `C[C@@H]1C[C@H](NC(=O)c2cc(C3CC3)on2)CCN1C(=O)c1ccc(OCCN)cc1` [compound 671, N-((2R,4R)-1-(4-(2-aminoethoxy)benzoyl)-2-methylpiperidin-4-yl)-5-cyclopropylisoxazole-3-carboxamide], for which the values for the IC50 in experiment [1] and in experiment [2] were 104 nM and 5580 nM, respectively.
Consider `CN(C)CCS(=O)(=O)N1[C@@H]2CC[C@H]1C[C@@H](NC(=O)c1cc(C3CC3)on1)C2` [compound 672, 5-cyclopropyl-N-((1R,3r,5S)-8-((2-(dimethylamino)ethyl)sulfonyl)-8-azabicyclo[3.2.1]octan-3-yl)isoxazole-3-carboxamide], for which the IC50 in experiment [1] was 104 nM; in experiment [2], 388 nM.
With `O=C(N[C@H]1C[C@H]2CCC[C@@H](C1)N2S(=O)(=O)CC1CCNCC1)c1cc(C2CC2)on1` [compound 673, 5-cyclopropyl-N-((1R,3r,5S)-9-((piperidin-4-ylmethyl)sulfonyl)-9-azabicyclo[3.3.1]nonan-3-yl)isoxazole-3-carboxamide], the IC50 in experiment [1] worked out at 106 nM; in experiment [2], 1680 nM.
For the molecule `C[C@H]1C[C@@H](NC(=O)c2cc(C3CC3)on2)CCN1S(=O)(=O)N(C)C1CCN(C)CC1` [compound 674, 5-cyclopropyl-N-((2S,4S)-2-methyl-1-(N-methyl-N-(1-methylpiperidin-4-yl)sulfamoyl)piperidin-4-yl)isoxazole-3-carboxamide], the results for the IC50 in experiment [1] and in experiment [2] were 108 nM and 1080 nM, respectively.
In the case of `CNCc1ccc(C(=O)N2CC[C@@H](NC(=O)c3cc(C4CC4)on3)C[C@H]2C)cc1` [compound 675, 5-cyclopropyl-N-((2R,4R)-2-methyl-1-(4-((methylamino)methyl)benzoyl)piperidin-4-yl)isoxazole-3-carboxamide], the IC50 came out at 110 nM in experiment [1] and 1370 nM in experiment [2].
With `C[C@@H]1C[C@H](NC(=O)c2cc(C3CC3)on2)CCN1S(=O)(=O)CC1CCN(CCN2CCOCC2)CC1` [compound 676, 5-cyclopropyl-N-((2R,4R)-2-methyl-1-(((1-(2-morpholinoethyl)piperidin-4-yl)methyl)sulfonyl)piperidin-4-yl)isoxazole-3-carboxamide], the IC50 in experiment [1] was 111 nM; in experiment [2], more than 10000 nM.
The matching figures for `C[C@H]1C[C@@H](NC(=O)c2cc(C3CC3)on2)CCN1S(=O)(=O)N(C)CCN` [compound 677, N-((2S,4S)-1-(N-(2-aminoethyl)-N-methylsulfamoyl)-2-methylpiperidin-4-yl)-5-cyclopropylisoxazole-3-carboxamide]: 111 nM and 5310 nM.
For `CN(C1CCNCC1)S(=O)(=O)N1[C@@H]2CCC[C@H]1C[C@@H](NC(=O)c1cc(C3CC3)on1)C2` [compound 678], the IC50 in experiment [1] came out at 113 nM; in experiment [2], 2660 nM.
The matching figures for `C[C@H](N)c1ccc(C(=O)N2CC[C@@H](NC(=O)c3cc(C4CC4)on3)C[C@H]2C)cc1` [compound 679, N-((2R,4R)-1-(4-((S)-1-aminoethyl)benzoyl)-2-methylpiperidin-4-yl)-5-cyclopropylisoxazole-3-carboxamide]: 113 nM and 1300 nM.
The matching figures for `C[C@H]1C[C@@H](NC(=O)c2cc(C3CC3)on2)CCN1S(=O)(=O)N1CCN(C)C(C)(C)C1` [compound 680, 5-cyclopropyl-N-((2S,4S)-2-methyl-1-((3,3,4-trimethylpiperazin-1-yl)sulfonyl)piperidin-4-yl)isoxazole-3-carboxamide]: 119 nM and 592 nM.
The matching figures for `CN1CCC(CS(=O)(=O)N2CC[C@H](NC(=O)c3cc(C4CC4)on3)C[C@@H]2Cc2ccccc2)CC1` [compound 682, N-((2S,4S)-2-benzyl-1-(((1-methylpiperidin-4-yl)methyl)sulfonyl)piperidin-4-yl)-5-cyclopropylisoxazole-3-carboxamide]: 121 nM and 1250 nM.
As to `C[C@@H]1C[C@H](NC(=O)c2cc(C3CC3)on2)CCN1C(=O)c1ccc(N2CCNCC2)nc1` [compound 683, 5-cyclopropyl-N-((2R,4R)-2-methyl-1-(6-(piperazin-1-yl)nicotinoyl)piperidin-4-yl)isoxazole-3-carboxamide], the IC50 was 122 nM in experiment [1] and 1780 nM in experiment [2].
As for `CN1CCN(S(=O)(=O)N2[C@@H]3CC[C@H]2C[C@@H](NC(=O)c2cc(C4CC4)on2)C3)CC1CO` (stereo partly drawn) [compound 684, 5-cyclopropyl-N-((1R,3r,5S)-8-((3-(hydroxymethyl)-4-methylpiperazin-1-yl)sulfonyl)-8-azabicyclo[3.2.1]octan-3-yl)isoxazole-3-carboxamide], the IC50 in experiment [1] turned out to be 122 nM; in experiment [2], 923 nM.
As for `C[C@@H]1CN(S(=O)(=O)N2CCN(C)CC2)[C@H](C)C[C@@H]1NC(=O)c1cc(C2CC2)on1` [compound 685, 5-cyclopropyl-N-((2R,4S,5R)-2,5-dimethyl-1-((4-methylpiperazin-1-yl)sulfonyl)piperidin-4-yl)isoxazole-3-carboxamide], the 50% inhibitory concentration (IC50) in experiment [1] stood at 124 nM; in experiment [2], 254 nM.
Take `C[C@@H]1C[C@H](NC(=O)c2cc(C3CC3)on2)CCN1C(=O)c1ccc(CN(C)C)cc1` [compound 686, 5-cyclopropyl-N-((2R,4R)-1-(4-((dimethylamino)methyl)benzoyl)-2-methylpiperidin-4-yl)isoxazole-3-carboxamide]: the values for the IC50 in experiment [1] and in experiment [2] were 129 nM and 1540 nM, respectively.
Regarding `CN(C1CCNCC1)S(=O)(=O)N1[C@@H]2CCC[C@H]1C[C@H](NC(=O)c1cc(C3CC3)on1)C2` [compound 687, 5-cyclopropyl-N-((1R,3s,5S)-9-(N-methyl-N-(piperidin-4-yl)sulfamoyl)-9-azabicyclo[3.3.1]nonan-3-yl)isoxazole-3-carboxamide], the half-maximal inhibitory concentration (IC50) in experiment [1] worked out at 130 nM; in experiment [2], 1710 nM.
With `C[C@@H]1CN(S(=O)(=O)CCN)[C@H](C)C[C@@H]1NC(=O)c1cc(C2CC2)on1` [compound 688, N-((2R,4S,5R)-1-((2-aminoethyl)sulfonyl)-2,5-dimethylpiperidin-4-yl)-5-cyclopropylisoxazole-3-carboxamide], the results for the concentration for half-maximal inhibition (IC50) in experiment [1] and in experiment [2] were 131 nM and 783 nM, respectively.
For `CC1CCCN1CCS(=O)(=O)N1[C@@H]2CC[C@H]1C[C@@H](NC(=O)c1cc(C3CC3)on1)C2` (stereo partly drawn) [compound 689, 5-cyclopropyl-N-((1R,3r,5S)-8-((2-(2-methylpyrrolidin-1-yl)ethyl)sulfonyl)-8-azabicyclo[3.2.1]octan-3-yl)isoxazole-3-carboxamide], the figures for the IC50 in experiment [1] and in experiment [2] were 131 nM and 764 nM, respectively.
For `O=C(N[C@H]1C[C@H]2CC[C@@H](C1)N2S(=O)(=O)CCN1CCC(O)C1)c1cc(C2CC2)on1` (stereo partly drawn) [compound 690, 5-cyclopropyl-N-((1R,3r,5S)-8-((2-(3-hydroxypyrrolidin-1-yl)ethyl)sulfonyl)-8-azabicyclo[3.2.1]octan-3-yl)isoxazole-3-carboxamide], in that order: 138 nM and 553 nM.
`O=C(N[C@H]1CCN(S(=O)(=O)CC2CCNCC2)[C@H](Cc2ccccc2)C1)c1cc(C2CC2)on1` [compound 691, N-((2R,4S)-2-benzyl-1-((piperidin-4-ylmethyl)sulfonyl)piperidin-4-yl)-5-cyclopropylisoxazole-3-carboxamide]: the IC50 amounted to 144 nM in experiment [1] and 1950 nM in experiment [2].
For the molecule `CC1CN(S(=O)(=O)N2[C@@H]3CC[C@H]2C[C@@H](NC(=O)c2cc(C4CC4)on2)C3)CC(C)N1` (stereo partly drawn) [compound 692, 5-cyclopropyl-N-((1R,3r,5S)-8-((3,5-dimethylpiperazin-1-yl)sulfonyl)-8-azabicyclo[3.2.1]octan-3-yl)isoxazole-3-carboxamide], the IC50 is 148 nM in experiment [1] and 637 nM in experiment [2].

The record behind these values is patent publication US10577363B2, “Substituted piperidine compounds” (EPIZYME, INC., priority 2014, dated 2020).
